The text below walks through data of US4892740A, “Orally administrable pharmaceutical preparation of improved flavoring characteristics” (Taisho Pharmaceutical Co., Ltd., priority 1987, dated 1990).

The nature of the series: Blood concentration of TE-031 after oral administration to Beagle dogs (bioassay method). The settings on record: dog, male Beagle dogs. It is filed as in vivo. As for the experimental part:
Test Animals Five male Beagle dogs weighing 10 kg were used as experimental animals. Sample The pharmaceutical preparation obtained in Example 1 (coated particles containing 39% of TE-031 prepared by using AEA powder having an average particle diameter of 16 microns as the powder bed) was used in an amount of 100 mg as TE-031. Testing procedure The sample was orally administered together with water to the experimental animals, and the concentration of TE-031 in the blood was measured by the bioassay method. Then after a period of 10 days during which the sample was not administered, a capsule containing 100 mg of the bulk of TE-031 was orally administered as a control together with water. The concentration of TE-031 in the blood was likewise measured by bioassay.

Molecules are shown by their SMILES.

`CC[C@H]1OC(=O)[C@H](C)[C@@H](O[C@H]2C[C@@](C)(OC)[C@@H](O)[C@H](C)O2)[C@H](C)[C@@H](O[C@@H]2O[C@H](C)C[C@H](N(C)C)[C@H]2O)[C@](C)(OC)C[C@@H](C)C(=O)[C@H](C)[C@@H](O)[C@]1(C)O` [bulk, 6-O-methylerythromycin A]: the AUC (100 mg as TE-031, read-out: area below the blood level curve) was found to be 42400 ng·h/mL. Moreover, the Cmax (100 mg as TE-031, read-out: maximum blood level) amounted to 3060 ng/mL. Under “100 mg as TE-031, read-out: time of highest blood level”, the Tmax is 2 h.
